Read-outs that look alike come from different tables or passages of the source.

Experiment [1] can be described thus: Suppression of anxiety (punished licking, conflict test) in the adult male rat. It counts as in vivo, male rats. Here is the method: The anxiolytic activity of selected compounds of the invention was assessed by determining their ability to release (disinhibit) behavior that had been suppressed by punishment (Vogel, J. R. et al. Psychopharmacology 1971, 21, 1). Male rats were deprived of water for 48 hours and were deprived of food for 24 hours prior to testing. After the first 24 hours of water deprivation, they were placed in the conflict chamber for a training period; wherein, they were allowed 200 unpunished licks from a bottle containing tap water. The experiment was run the next day. At the expected time of peak activity, the animals were placed in the chamber and allowed access to tap water. […] Their first lick initiates a 3-min test session. Subsequently,every 20th lick was punished by a 0.2-s shock delivered via the stainless-steel drinking-tube. Vehicle-treated control animals generally were willing to accept a median number of 3 to 8 shocks per test session. […] The Wilcoxon rank-sum test (Mann-WhitneyU-test) was used to test for an increase (p<0.05, 1-tailed) in the median number of shocks in drug-treated groups, compared to a concurrently run vehicle-treated group. The biological assay is considered to be valid if the effects of a known anxiolytic (positive control) are detected, within the same experiment. A compound was considered active if there is a significant difference in the median number of shocks tolerated between the drug-treated group and the control group. The MED was defined as the minimum dose of the drug-treatment as analyzed using the Wilcoxon rank-sum test (SAS; Statistical Analysis System, version 5.16). If the MED value is greater than 10, an active dose of the compound being tested had not been determined.

Experiment [2] in a line: Suppression of metrazol-induced convulsions. The class given is in vivo, male CD1 mice. The following applies: Mus musculus, 0.5 h, mice. As for the experimental part:
Selected compounds of the invention were tested for their ability to reduce metrazol-induced convulsions in mice (Swinyard, E. A. J. Am. Pharm Assoc. 1949, 38, 201). Male CD1 mice, were fasted at least 16 hours, were divided into equal groups and test compounds or vehicle were administered parenterally. Water was not withheld except during the period of observations. At the time of suspected peak activity, anti-pentylenetetrazol (anti-metrazol) activity was evaluated by the subcutaneous administration of the CD90 dose of metrazol (the dose of metrazol was determined from the dose-response curve producing clonic convulsions in 90% of animals that received the corresponding vehicle for this experiment). Metrazol was dissolved in 0.9% sodium chloride solution, and its dose volume was 10 ml/kg. Animals were housed individually for observation of clonic convulsions, tonic convulsions and death for a period of 30 min. Test compounds that blocked the clonic seizure component of the convulsion in at least 50% of the animals were considered active. The biological assay was considered to be valid if the effects of a known anticonvulsant (positive control) were detected, within the same experiment. Activity was reported as percent reduction of clonic convulsions from the vehicle group. The ED50 values of active compounds were calculated by the method of probits (Finney, D. J. 1971. Probit Analysis. London: Cambridge University Press) and are listed in Tables 1 to 5.

Experiment [3] has as its target benzodiazepine site of the GABA-A receptor. In words: Benzodiazepine Receptor Binding Assay (inhibition of 3H-flunitrazepam binding). Conditions: ca. 3 nM 3H-flunitrazepam.
Where [4] appears, read: Table 1, ip, minimum effective dose, >10 = active dose not determined, read-out: Conflict (ip) MED.
Where [5] appears, read: Table 1, ip, clonic convulsions after sc CD90 metrazol, >30 = active dose not determined, read-out: Metrazol (ip) ED50.
The mark [6] stands for this setting: Table 1, 25° C., 10-20 min, >10,000 = not active.
[7] abbreviates: Table 2, ip, minimum effective dose, read-out: Conflict (ip) MED.
Where [8] appears, read: Table 2, ip, clonic convulsions, read-out: Antimetrazol (ip) ED50.
Setting [9] is: Table 3, minimum effective dose, read-out: Conflict MED.
Where [10] appears, read: Table 3, parenteral, clonic convulsions, read-out: Antimetrazol ED50.

On to `CSc1cc(N(C)C)ccc1NC(=O)C1=C2Nc3ccccc3N2CCC1=O` [compound 79], for which, in experiment [1] (setting [4]), the minimal effective dose was above 10 mg/kg. The ED50 in experiment [2] (setting [5]) is above 10 mg/kg. Moreover, the IC50 in experiment [3] (setting [6]) is 660 nM.
As to `CN(C)c1ccc(NC(=O)C2=C3Nc4cc(Cl)ccc4N3CCC2=O)cc1` [compound 80], the minimal effective dose in experiment [1] (setting [4]) is above 10 mg/kg. Besides, the ED50 in experiment [2] (setting [5]) was 10 mg/kg. Further, the IC50 in experiment [3] (setting [6]) came out at 220 nM.
Taken in the same sequence, the figures for `O=C1CCN2C(=C1C(=O)Nc1ccccc1)Nc1cc(Cl)ccc12` [compound 81] were 10 mg/kg, above 10 mg/kg and 66 nM.
Taken in the same sequence, the figures for `O=C1CCN2C(=C1C(=O)Nc1ccncc1)Nc1cc(Cl)ccc12` [compound 82] were above 10 mg/kg, 3 mg/kg and 380 nM.
Taken in the same sequence, the figures for `O=C1CCN2C(=C1C(=O)NC1CCC1)Nc1ccccc12` [compound 83] were 10 mg/kg, above 30 mg/kg and 30 nM.
As for `O=C1CCN2C(=C1C(=O)Nc1ccccc1)Nc1ccc(Cl)cc12` [compound 84], in experiment [1] (setting [4]), the minimal effective dose is above 10 mg/kg. The ED50 in experiment [2] (setting [5]) was above 10 mg/kg. In experiment [3] (setting [6]), this compound came in with an IC50 of 170 nM.
For `Cc1cc(N(C)C)ccc1NC(=O)C1=C2Nc3ccccc3N2CCC1=O` [compound 85], in experiment [1] (setting [4]), the minimal effective dose is above 10 mg/kg. Moreover, the ED50 in experiment [2] (setting [5]) came to 10 mg/kg. In experiment [3] (setting [6]), the IC50 came to 4000 nM.
For `CN(C)c1ccccc1NC(=O)C1=C2Nc3ccccc3N2CCC1=O` [compound 87] the same measures were 10 mg/kg, 10 mg/kg and 10000 nM.
Taken in the same sequence, the figures for `Cc1cccc2c1NC1=C(C(=O)Nc3ccncc3)C(=O)CCN12` [compound 88] were above 10 mg/kg, 10 mg/kg and 390 nM.
Taken in the same sequence, the figures for `Cc1cccc2c1NC1=C(C(=O)Nc3ccccc3)C(=O)CCN12` [compound 89] were above 10 mg/kg, 1 mg/kg and 10 nM.
In the case of `O=C1CCN2C(=C1C(=O)Nc1c(F)c(F)c(F)c(F)c1F)Nc1ccccc12` [compound 91], in experiment [1] (setting [4]), the minimal effective dose was determined as 10 mg/kg. Moreover, the ED50 in experiment [2] (setting [5]) lay in the range of 1 to 10 mg/kg. In experiment [3] (setting [6]), this compound displayed a 50% inhibitory concentration (IC50) of 270 nM.
As to `O=C1CCN2C(=C1C(=O)Nc1ccc(F)cc1F)Nc1ccccc12` [compound 92], the minimal effective dose in experiment [1] (setting [4]) is above 10 mg/kg. The ED50 in experiment [2] (setting [5]) was 1 mg/kg. The IC50 in experiment [3] (setting [6]) was 10 nM.
In the case of `O=C1CCN2C(=C1C(=O)Nc1c(F)cc(F)cc1F)Nc1ccccc12` [compound 93], the minimal effective dose in experiment [1] (setting [4]) is 3 mg/kg. Further, in experiment [2] (setting [5]), the ED50 worked out at 1 mg/kg. For the same compound, the 50% inhibitory concentration (IC50) in experiment [3] (setting [6]) was found to be 15 nM.
With `Cc1cccc2c1NC1=C(C(=O)Nc3ccccc3F)C(=O)CCN12` [compound 94], the minimal effective dose in experiment [1] (setting [4]) is below 10 mg/kg. Moreover, the 50% effective dose (ED50) in experiment [2] (setting [5]) is 1 mg/kg. The same compound had an IC50 in experiment [3] (setting [6]) of 96 nM.
For `O=C1CCN2C(=C1C(=O)Nc1ccc(F)c(F)c1F)Nc1ccccc12` [compound 96] the same measures were above 10 mg/kg, above 10 mg/kg and 1500 nM.
For `O=C1CCN2C(=C1C(=O)Nc1cc(F)ccc1F)Nc1ccccc12` [compound 98] the same measures were above 30 mg/kg, above 30 mg/kg and 12 nM.
Taken in the same sequence, the figures for `O=C1CCN2C(=C1C(=O)Nc1ncc[nH]1)Nc1ccccc12` [compound 99] were above 10 mg/kg, above 30 mg/kg and 185 nM.
With `Cc1cc(NC(=O)C2=C3Nc4ccccc4N3CCC2=O)ccn1` [compound 100], the minimal effective dose in experiment [1] (setting [4]) was above 10 mg/kg. In addition, the ED50 in experiment [2] (setting [5]) was above 10 mg/kg. The same compound had an IC50 in experiment [3] (setting [6]) of 820 nM.
As for `CNC(=O)C1=C2Nc3ccccc3N2CCC1=O` [compound 102], the minimal effective dose in experiment [1] (setting [4]) is above 10 mg/kg. In experiment [2] (setting [5]), the 50% effective dose (ED50) was above 10 mg/kg. Besides, the IC50 in experiment [3] (setting [6]) was found to be 400 nM.
Take `O=C1CCN2C(=C1C(=O)Nc1c(F)cc(F)cc1Br)Nc1ccccc12` [compound 103]: the minimal effective dose in experiment [1] (setting [4]) is above 10 mg/kg. Further, the ED50 in experiment [2] (setting [5]) is above 10 mg/kg. The compound further showed an IC50 in experiment [3] (setting [6]) of 1200 nM.
Take `O=C1CCN2C(=C1C(=O)Nc1c(F)cc(F)cc1F)Nc1cc(Cl)ccc12` [compound 104]: the minimal effective dose in experiment [1] (setting [4]) is 10 mg/kg. Moreover, the ED50 in experiment [2] (setting [5]) amounted to 1 mg/kg. In experiment [3] (setting [6]), this compound registered an IC50 of 13 nM.
As for `CC(C)NC(=O)C1=C2Nc3ccccc3N2CCC1=O` [compound 105], in experiment [1] (setting [4]), the minimal effective dose is above 10 mg/kg. Also, the ED50 in experiment [2] (setting [5]) is above 10 mg/kg. Further, the IC50 in experiment [3] (setting [6]) was 46 nM.
Regarding `O=C1CCN2C(=C1C(=O)Nc1ccncc1)Nc1cc(F)ccc12` [compound 106], the minimal effective dose in experiment [1] (setting [4]) was 3 mg/kg. Further, the ED50 in experiment [2] (setting [5]) worked out at 3 mg/kg. For the same compound, the 50% inhibitory concentration (IC50) in experiment [3] (setting [6]) turned out to be 42 nM.
`O=C1CCN2C(=C1C(=O)Nc1c(F)cc(F)cc1F)Nc1cc(F)ccc12` [compound 107]: the minimal effective dose in experiment [1] (setting [4]) was 0.3 mg/kg. The ED50 in experiment [2] (setting [5]) came to 1 mg/kg. In experiment [3] (setting [6]), this compound yielded an IC50 of 3 nM.
For `O=C1CCN2C(=C1C(=O)Nc1ccccc1F)Nc1cc(F)ccc12` [compound 108] the same measures were 10 mg/kg, below 1 mg/kg and 2 nM.
For `O=C1CCN2C(=C1C(=O)Nc1c(F)cccc1F)Nc1cc(F)ccc12` [compound 109] the same measures were 3 mg/kg, 0.3 mg/kg and 1.3 nM.
Consider `O=C1CCN2C(=C1C(=O)Nc1ccccc1F)Nc1cc(Cl)ccc12` [compound 113], for which the minimal effective dose in experiment [1] (setting [4]) is below 10 mg/kg. Moreover, in experiment [2] (setting [5]), the ED50 is 1 mg/kg. Further, the IC50 in experiment [3] (setting [6]) was determined as 5 nM.
Taken in the same sequence, the figures for `O=C1CCN2C(=C1C(=O)Nc1c(F)cccc1F)Nc1cc(Cl)ccc12` [compound 114] were 3 mg/kg, 1 mg/kg and 6 nM.
In the case of `CN(C)CCc1ccc(NC(=O)C2=C3Nc4ccccc4N3CCC2=O)cc1` [compound 115], the minimal effective dose in experiment [1] (setting [4]) turned out to be 30 mg/kg. The 50% effective dose (ED50) in experiment [2] (setting [5]) was above 30 mg/kg. The same compound returned an IC50 in experiment [3] (setting [6]) of 110 nM.
As to `O=C1CCN2C(=C1C(=S)Nc1ccccc1)Nc1ccccc12` [compound 117], the minimal effective dose in experiment [1] (setting [7]) was above 10 mg/kg. The ED50 in experiment [2] (setting [8]) is above 10 mg/kg. The same compound came in with an IC50 in experiment [3] (Table 2) of 360 nM.
`O=C1CCN2C(=C1C(=O)Sc1ccccc1)Nc1ccccc12` [compound 119]: the minimal effective dose in experiment [1] (setting [7]) was above 10 mg/kg. Besides, in experiment [2] (setting [8]), the ED50 is above 30 mg/kg. The compound also came in with an IC50 in experiment [3] (Table 2) of 29 nM.
Regarding `CN1C2=C(C(=O)Nc3ccccc3)C(=O)CCN2c2ccccc21` [compound 120], the minimal effective dose in experiment [1] (setting [9]) was below 1 mg/kg. In experiment [2] (setting [10]), the ED50 is below 1 mg/kg. For the same compound, the IC50 in experiment [3] (Table 3) stood at 6 nM.
For `CCN1C2=C(C(=O)Nc3ccccc3)C(=O)CCN2c2ccccc21` [compound 121], the minimal effective dose in experiment [1] (setting [9]) is below 1 mg/kg. Further, the ED50 in experiment [2] (setting [10]) is below 1 mg/kg. Also, the IC50 in experiment [3] (Table 3) was below 0.1 nM.
On to `CN1C2=C(C(=O)Nc3ccccc3F)C(=O)CCN2c2ccccc21` [compound 122], for which the minimal effective dose in experiment [1] (setting [9]) was determined as 0.03 mg/kg. In addition, in experiment [2] (setting [10]), the ED50 was 0.03 mg/kg. In experiment [3] (Table 3), this compound showed an IC50 below 1 nM.
With `CCN1C2=C(C(=O)Nc3ccccc3F)C(=O)CCN2c2ccccc21` [compound 123], in experiment [1] (setting [9]), the minimal effective dose is 0.3 mg/kg. The ED50 in experiment [2] (setting [10]) was 0.01 mg/kg. The compound further gave an IC50 in experiment [3] (Table 3) of 2.1 nM.
In the case of `CN(C)c1ccc(NC(=O)C2=C3N(C)c4ccccc4N3CCC2=O)cc1` [compound 124], the minimal effective dose in experiment [1] (setting [9]) is 10 mg/kg. In experiment [2] (setting [10]), the ED50 lay within 1 to 3 mg/kg. Besides, the IC50 in experiment [3] (Table 3) was 29 nM.
For `CCN1C2=C(C(=O)Nc3ccc(N(C)C)cc3)C(=O)CCN2c2ccccc21` [compound 125] the same measures were above 10 mg/kg, 0.3 mg/kg and 72 nM.
